Results as given in patent publication US11324798B2, “Materials and methods for treatment of inflammation” (CYTOGEL PHARMA, LLC, priority 2010, dated 2022).
Entries after “also recorded” stand apart in the source; their conditions may differ.

Columns and labels:
[1] = Survival of anaesthetised mice after i.v. CYT-1010 injection; type: in vivo
Procedure: In the first series of the in vivo experiments of mice, ketamine (100 mg/kg, i.p.) and xylazine (10 mg/kg, i.m.) were used for anesthesia according to the conventional protocol.

[2] = test system: mustard oil-induced acute neurogenic inflammation in the mouse ear; test: Filtered and non-filtered CYT-1010 on 5% mustard oil-induced acute neurogenic ear swelling in mice (Example 4); type: in vivo
Procedure: Stock solution of the 100 μg/ml concentration of CYT-1010 (5.5 ml) was prepared fresh every experimental day with 20% hydroxypropyl-βcyclodextrin (HPCD) dissolved in sterile distilled water, shaken properly and sonicated. The vehicle was 20% HPCD dissolved in sterile distilled water. Further dilutions of the compound for the smaller administered doses were made with this vehicle. The applied concentrations were filtered through a 0.2 μm sterile teflon filter. […] The lower concentrations looked clear immediately. Non-filtered solutions were administered in the same concentrations in the parallel groups for comparison. Three doses of both the filtered and non-filtered CYT-1010 solutions (1, 10 and 100 μg/kg; 0.1 ml/10 g from the 0.1, 1 and 10 μg/ml solutions) were administered i.v. 5 min before the induction of the inflammation. Animals of the control group were treated with the same volume of the HPCD after or without the same filtration procedure.
Mice were anaesthesized with urethane (1.2 g/kg i.p.) to achieve a long-lasting deep anaesthesia and minimize respiratory depression. Ten μl of 5% mustard oil dissolved in paraffin oil was smeared on both sides of both ears. Mustard oil in this concentration selectively activates Transient Receptor Potential A1 (TRPA1) on capsaicin-sensitive peptidergic sensory nerves and induces the release of sensory neuropeptides (Banvolgyi et al., 2004). The released calcitonin gene-related peptide (CGRP) and tachykinins such as substance P (SP) in the innervated area evoke vasodilatation and plasma protein extravasation collectively called acute neurogenic inflammation (Helyes et al., 1997, 2001, 2006; Borzsei et a., 2008).
CYT-1010 (1, 10 and 100 μg/kg; 0.1 ml/10 g from the 0.1, 1, 10 μg/ml solutions) was administered i.v. 5 min before the induction of the inflammation by mustard oil smearing. Mice in the control group were treated with the same volume of the vehicle, 20% HPCD dissolved in sterile distilled water
There were 8 mice in each experimental group, and 9 in the 1 μg/kg filtered CYT-1010 dose group […].
65 male CD1 mice (25-35 g) were divided into 8 experimental groups: Group 1: non-filtered vehicle-treated controls (n=8); Group 2: non-filtered 1 μg/kg CYT-1010 (n=8); Group 3: non-filtered 10 μg/kg CYT-1010 (n=8); Group 4: non-filtered 100 μg/kg CYT-1010 (n=8); Group 5: filtered vehicle-treated controls (n=8); Group 6: filtered 1 μg/kg CYT-1010 (n=9); Group 7: filtered 10 μg/kg CYT-1010 (n=8); and Group 8: filtered 100 μg/kg CYT-1010 (n=8).
This study was undertaken in blocks with 16-17 mice per occasion. The whole set of data was obtained during 4 days (12, 13, 16, 22 Apr. 2010). There were 2 or 3 solvent-treated rats every day and the remaining 12 animals were randomised to receive each treatment.
The diameter of the ear was measured with an engineers' micrometer before the treatment and 4 times during the 3 h-examination period (20 min, 1 h, 2 h and 3 h). Edema was expressed in % compared to the initial control values (Banvolgyi et al., 2004; Borzsei et al., 2008). The compound was administered i.v. 5 min before mustard oil smearing in 3 doses (1, 10, 100 μg/kg) in separate groups after sterile filtration or without filtration. Animals of the control group were treated with the same volume of the vehicle
Results are expressed as the mean±s.e.m. Statistical significance was performed with one-way ANOVA followed by Dunnett's post-hoc test (modified t-test) when the data of the CYT-1010-treated groups were compared to the respective vehicle-treated controls at certain time points. The areas under the time-dependent percentage ear swelling curves (AUC) were also calculated and analyzed with the same statistics to compare the whole edema responses of the CYT-1010-treated mice during the 3 h-experimental period to the respective control group. *p<0.05 was considered to be significant. […]

NC(Cc1ccc(O)cc1)C(=O)NC1CCCCNC(=O)C(Cc2ccccc2)NC(=O)C(Cc2c[nH]c3ccccc23)NC1=O [CYT-1010, H-Tyr-c-[D-Lys-Trp-Phe]]
Mortality after i.v. injection ([1]; mice under ketamine (100 mg/kg, i.p.) and xylazine (10 mg/kg, i.m.) anesthesia, presumably respiratory depression): all the 10 mice died promptly | Time to death after i.v. injection ([1]; mice under ketamine/xylazine anesthesia): ≤ 5 min | Survival after i.v. injection ([1]; mice under urethane (1.2 g/kg i.p.) anaesthesia, one death in the 1 μg/kg dose group): all mice survived except one | Effect of filtration on the inhibitory action of CYT-1010 ([2]; 0.2 μm sterile filter, filtered vs non-filtered): moderately decreases | AUC of time course of percentage ear swelling ([2]; filtered (0.2 μm), 1 μg/kg i.v., control 50.04±6.96, NS): 51.47±6.93 units | AUC of time course of percentage ear swelling ([2]; filtered (0.2 μm), 10 μg/kg i.v., control 50.04±6.96, NS): 33.68±3.79 units | AUC of time course of percentage ear swelling ([2]; filtered (0.2 μm), 100 μg/kg i.v., control 50.04±6.96, NS): 33.97±5.62 units | Effect on mustard oil-induced ear swelling ([2]; filtered, 1 μg/kg i.v.): did not influence ear swelling; also recorded: did not have any effect | Effect on mustard oil-induced ear swelling ([2]; filtered, 10 μg/kg and 100 μg/kg i.v., 20 min): inhibited significantly | Effect on mustard oil-induced ear swelling ([2]; filtered, two higher doses (10 and 100 μg/kg i.v.)): moderate inhibition | Effect on mustard oil-induced ear swelling ([2]; non-filtered, 1 μg/kg i.v.): did not significantly diminish ear swelling | AUC of time course of percentage ear swelling ([2]; non-filtered, 1 μg/kg i.v., control 44.02±6.97, NS): 40.33±5.32 units | Extent of the inhibition of ear swelling ([2]; non-filtered, 10 μg/kg and 100 μg/kg i.v., both cases): about 50% | Effect on mustard oil-induced ear swelling ([2]; non-filtered, 10 μg/kg and 100 μg/kg i.v., from 20 min until the 2 hour time point): significantly inhibited; also recorded: significantly reduced | AUC of time course of percentage ear swelling ([2]; non-filtered, 10 μg/kg i.v., control 44.02±6.97, P<0.05): 24.21±2.75 units | AUC of time course of percentage ear swelling ([2]; non-filtered, 100 μg/kg i.v., control 44.02±6.97, P<0.01): 21.71±1.72 units
